Source: the supplement of paper PMC4862054
Where “and” joins values, the source holds several entries; their conditions need not be identical. Equal values may be shown once.

Key:
Assay in all cases: normalised viability (% of control), CellTiter-Blue; higher = more viable cells (about 100 = DMSO control)
Details in all cases: incubation time: 72 h
[1] = test system: CAL-51
Method: (§1)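 DSRT, CellTiter-Blue viability, 72 h incubation. Signal is normalised to DMSO and benzethonium chloride controls. Value is the normalised response at dose 6.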

[2] = test system: CAL-85-1
Method: as §1

[3] = test system: MDA-MB-453
Method: as §1

[4] = test system: HDQ-P1
Method: as §1

[5] = test system: CAL-148
Method: as §1

[6] = test system: DU-4475
Method: as §1

[7] = test system: CAL-51; remark: listed apart in the source
Method: (§2)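 DSRT, CellTiter-Blue viability, 72 h incubation. Signal is normalised to DMSO and benzethonium chloride controls. Value is the normalised response at dose 7.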

[8] = test system: CAL-85-1; remark: listed apart in the source
Method: as §2

[9] = test system: MDA-MB-453; remark: listed apart in the source
Method: as §2

[10] = test system: HDQ-P1; remark: listed apart in the source
Method: as §2

[11] = test system: CAL-148; remark: listed apart in the source
Method: as §2

[12] = test system: DU-4475; remark: listed apart in the source
Method: as §2

| SMILES | normalised viability [1] | normalised viability [2] | normalised viability [3] | normalised viability [4] | normalised viability [5] | normalised viability [6] | normalised viability [7] [%] | normalised viability [8] [%] | normalised viability [9] [%] | normalised viability [10] [%] | normalised viability [11] [%] | normalised viability [12] [%] |
| --- | --- | --- | --- | --- | --- | --- | --- | --- | --- | --- | --- | --- |
| Nc1cc(C(F)(F)F)c(-c2cc(N3CCOCC3)nc(N3CCOCC3)n2)cn1 [BKM-120] (300 nM) | 78.4% | 81.2% | 71.2% | 71.9% | 92.5% | 102% |  |  |  |  |  |  |
| CN(C)CCOc1ccc(/C(=C(/CCCl)c2ccccc2)c2ccccc2)cc1 [Toremifene] (300 nM) | 104% | 101% | 101% | 79.5% | 102% | 99.7% |  |  |  |  |  |  |
| O=C(/C=C/c1cccc(S(=O)(=O)Nc2ccccc2)c1)NO [Belinostat] (300 nM) | 105% | 72.5% | 16.9% | 26.6% | 49.3% | 59.2% |  |  |  |  |  |  |
| N#Cc1ccc(COC[C@H]2O[C@@H](n3c(NCc4ccc(Cl)c(Cl)c4)nc4c(N)ncnc43)[C@H](O)[C@@H]2O)cc1 (300 nM) | 117% | 96.9% | 112% | 67% | 110% | 91.7% |  |  |  |  |  |  |
| COc1cc2ncnc(Nc3ccc(F)c(Cl)c3)c2cc1OCCCN1CCOCC1 [Gefitinib] (300 nM) | 104% and 106% | 69.8% and 65.9% | 98.2% and 83.2% | 64% and 66.2% | 95.6% and 84.7% | 83.8% and 84.4% |  |  |  |  |  |  |
| COc1cc(OC2CCN(C)CC2)ccc1Nc1ncc2c(n1)n(C1CCCC1)c(=O)n2C [AZ 3146] (300 nM) | 87.6% | 109% | 97.2% | 76.6% | 115% | 115% |  |  |  |  |  |  |
| CN(C)c1nc(N(C)C)nc(N(C)C)n1 [Altretamine] (300 nM) | 108% | 95.9% | 112% | 88.5% | 112% | 110% |  |  |  |  |  |  |
| O=C(Nc1ccncc1)C(=O)c1cn(Cc2ccc(Cl)cc2)c2ccccc12 [Indibulin] (300 nM) | 71.3% | 55.8% | 41.4% | 30.7% | 95.7% | 115% |  |  |  |  |  |  |
| O=P1(N(CCCl)CCCl)NCCCO1 (stereo not given) [Cyclophosphamide] (1200 nM) | 106% | 108% | 112% | 81.5% | 107% | 96.2% |  |  |  |  |  |  |
| S=P(N1CC1)(N1CC1)N1CC1 [Thio-TEPA] (10000 nM) |  |  |  |  |  |  | 89.6 | 91.3 | 121 | 113 | 113 | 96.6 |
| S=P(N1CC1)(N1CC1)N1CC1 [Thio-TEPA] (3000 nM) | 94.8% | 96.8% | 95.5% | 90.4% | 91.2% | 92.2% |  |  |  |  |  |  |
| CCc1c2c(nc3ccc(OC(=O)N4CCC(N5CCCCC5)CC4)cc13)-c1cc3c(c(=O)n1C2)COC(=O)[C@]3(O)CC [Irinotecan] (300 nM) | 101% and 105% | 81.2% and 99.8% | 97.6% and 103% | 64.5% and 88.1% | 82.5% and 96.9% | 74.1% and 85.6% |  |  |  |  |  |  |
| Nc1cc(C(F)(F)F)c(-c2cc(N3CCOCC3)nc(N3CCOCC3)n2)cn1 [BKM-120] (1000 nM) |  |  |  |  |  |  | 56.9 | 58.3 | 32.4 | 63.2 | 83.7 | 92.9 |
| COC(=O)c1ccc2c(c1)NC(=O)/C2=C(\Nc1ccc(N(C)C(=O)CN2CCN(C)CC2)cc1)c1ccccc1 [BIBF 1120] (300 nM) | 93.9% | 111% | 105% | 100% | 96.1% | 91.9% |  |  |  |  |  |  |
| CC(C)C[C@@H](C(=O)N[C@H](C(=O)OC1CCCC1)c1ccccc1)[C@H](O)C(=O)NO [Tosedostat] (300 nM) | 86.5% | 92.8% | 51.8% | 81.5% | 78.1% | 51.1% |  |  |  |  |  |  |
| Cc1cc(Nc2cc(CN3CCOCC3)c3nc(C)c(Cc4ccc(Cl)cc4F)n3n2)n[nH]1 (300 nM) | 90.5% | 103% | 63.9% | 45.8% | 89.3% | 104% |  |  |  |  |  |  |
| O=C(Nc1cccnc1)N1CCC(Cc2cccc(Oc3ccc(C(F)(F)F)cn3)c2)CC1 [PF-3845] (300 nM) | 97.9% | 93% | 98.4% | 127% | 103% | 95.4% |  |  |  |  |  |  |
| CO[C@H]1C[C@@H]2CC[C@@H](C)[C@@](O)(O2)C(=O)C(=O)N2CCCC[C@H]2C(=O)O[C@H]([C@H](C)C[C@@H]2CC[C@@H](OP(C)(C)=O)[C@H](OC)C2)CC(=O)[C@H](C)/C=C(\C)[C@@H](O)[C@@H](OC)C(=O)[C@H](C)C[C@H](C)/C=C/C=C/C=C/1C [Ridaforolimus] (30 nM) | 37.9% | 53.8% | 27.9% | 72.4% | 40.8% | 54% |  |  |  |  |  |  |
| Cc1ccc(NC(=O)c2ccc(CN3CCN(C)CC3)cc2)cc1Nc1nc(-c2cccnc2)cs1 [Masitinib] (300 nM) | 98.2% | 90.4% | 88.5% | 68.5% | 84.7% | 98.7% |  |  |  |  |  |  |
| Cc1[nH]c2ccccc2c1CCNCc1ccc(/C=C/C(=O)NO)cc1 [Panobinostat] (30 nM) | 68.8% | 42.8% | 3.77% | 62.8% | 21.1% | 27.3% |  |  |  |  |  |  |
